Laboratory results: patent US12371454B2, “Cyclic peptide compound having Kras inhibitory action” (priority 2019, dated 2025)
Positions of bridges follow the written chain, without caps; N, C: chain ends. Non-standard residues stand in square brackets, D forms with d. Residues, ends and D or L forms follow the SMILES beside them. *: point of attachment. hPhe(3-Cl-4-CF3) = N[C@@H](CCc1ccc(C(F)(F)F)c(Cl)c1)C(=O)O; hPhe(4-CF3) = N[C@@H](CCc1ccc(C(F)(F)F)cc1)C(=O)O; 3Oxa8azabicyclo(3.2.1)octane = C1CC2COCC1N2*; NMePhe(4-Cl) = CN[C@@H](Cc1ccc(Cl)cc1)C(=O)O; NMeGly(cPent) = CN[C@H](C(=O)O)C1CCCC1; NMeCha = CN[C@@H](CC1CCCCC1)C(=O)O; NMeF = CN[C@@H](Cc1ccccc1)C(=O)O; NMeT = CN[C@H](C(=O)O)[C@@H](C)O; d(β3hL) = CC(C)C[C@@H](N)CC(=O)O; N(CH2CH2)2CF2 = FC1(F)CCN(*)CC1; NMeD = CN[C@@H](CC(=O)O)C(=O)O; NMeL = CN[C@@H](CC(C)C)C(=O)O; NMeNva = CCC[C@H](NC)C(=O)O; NMeV = CN[C@H](C(=O)O)C(C)C; d(β3hA) = C[C@@H](N)CC(=O)O; NMeA = CN[C@@H](C)C(=O)O; NMeAib = CNC(C)(C)C(=O)O; Nle = CCCC[C@H](N)C(=O)O; Piperidide = C1CCN(*)CC1; Ac5c = NC1(C(=O)O)CCCC1; Aze = O=C(O)[C@@H]1CCN1; NBuGly = CCCCNCC(=O)O; Sar = CNCC(=O)O

Target: T1, Kras and SOS1 (biotin-tagged human Kras loaded with GDP, His-tagged human SOS1) (Homo sapiens, UniProt P01116, G12D)
T1 construct: made in house; host or cells: E. coli (stated for Kras only)
Assay: Protein-protein interaction inhibition between Kras and SOS1 (KrasGl2D-SOS PPI) using AlphaScreen
Assay type: binding
Conditions: AlphaScreen; biotin-tagged human Kras loaded with GDP, His-tagged human SOS1; read-out: KRAS G12D-SOS PPI IC50
Outline: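 Kras was produced in E. coli, purified, then loaded with GDP. It was paired via streptavidin acceptor beads with His-SOS1 held on nickel donor beads, and proximity signal at 520-620 nm was read after 680 nm illumination.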

T1 sequence (P01116 1-188 isoform P01116-2 G12D): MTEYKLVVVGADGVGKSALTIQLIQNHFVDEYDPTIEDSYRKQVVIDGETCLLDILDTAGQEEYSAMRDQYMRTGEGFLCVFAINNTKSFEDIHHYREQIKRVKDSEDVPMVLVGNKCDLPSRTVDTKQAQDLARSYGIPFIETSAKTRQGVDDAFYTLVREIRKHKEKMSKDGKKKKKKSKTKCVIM

SMILES	IC50
CCC[C@H]1C(=O)N(C)CC(=O)N[C@@H](CCc2ccc(C(F)(F)F)c(Cl)c2)C(=O)N2CCC[C@H]2C(=O)NC2(CCCC2)C(=O)N(C)[C@@H](C(C)C)C(=O)N(C)[C@H](C(=O)N2CCCCC2)CC(=O)N(C)[C@@H](CC(C)C)C(=O)N[C@@H]([C@@H](C)CC)C(=O)N(C)[C@@H](C)C(=O)N2CC[C@H]2C(=O)N1C [Compound 1027] ([NMeL]I[NMeA][Aze][NMeNva][Sar][hPhe(3-Cl-4-CF3)]P[Ac5c][NMeV][NMeD]-Piperidide; lactam N-11)	8.2 nM
CC[C@H](C)[C@@H]1NC(=O)[C@H](C)N(C)C(=O)C[C@@H](C)NC(=O)[C@H](CC(C)C)N(C)C(=O)[C@H](Cc2ccccc2)N(C)C(=O)[C@@H]2CCCN2C(=O)[C@H](CCc2ccc(C(F)(F)F)cc2)NC(=O)CN(C)C(=O)[C@H](CC2CCCCC2)N(C)C(=O)CN(C)C(=O)CN(C)C1=O [Compound 1031] (cyclo(I[Sar][Sar][NMeCha][Sar][hPhe(4-CF3)]P[NMeF][NMeL][d(β3hA)][NMeA]))	320 nM
CC[C@H](C)[C@@H]1NC(=O)[C@H](CC(C)C)N(C)C(=O)C[C@@H](CC(C)C)NC(=O)[C@H](C(C)C)N(C)C(=O)C2(CCCC2)NC(=O)[C@@H]2CCCN2C(=O)[C@H](CCc2ccc(C(F)(F)F)c(Cl)c2)NC(=O)CN(C)C(=O)[C@H](CC2CCCCC2)N(C)C(=O)CN(C)C(=O)CN(C)C1=O [Compound 1032] (cyclo([Ac5c][NMeV][d(β3hL)][NMeL]I[Sar][Sar][NMeCha][Sar][hPhe(3-Cl-4-CF3)]P))	60 nM
CCCCN1CC(=O)N(C)[C@@H](CC2CCCCC2)C(=O)N(C)CC(=O)N[C@@H](CCc2ccc(C(F)(F)F)c(Cl)c2)C(=O)N2CCC[C@H]2C(=O)NC2(CCCC2)C(=O)N(C)[C@@H](C(C)C)C(=O)N[C@H](C)CC(=O)N(C)[C@@H](CC(C)C)C(=O)N[C@@H]([C@@H](C)CC)C(=O)N(C)CC1=O [Compound 1033] (cyclo([Ac5c][NMeV][d(β3hA)][NMeL]I[Sar][NBuGly][NMeCha][Sar][hPhe(3-Cl-4-CF3)]P))	360 nM
CC[C@H](C)[C@@H]1NC(=O)[C@H](CC(C)C)N(C)C(=O)C[C@@H](C(=O)N2C3CCC2COC3)N(C)C(=O)[C@H](C2CCCC2)N(C)C(=O)C2(CCCC2)NC(=O)[C@H](CC(=O)N2CCC(F)(F)CC2)N(C)C(=O)[C@H](CCc2ccc(C(F)(F)F)c(Cl)c2)NC(=O)CN(C)C(=O)[C@H](CC2CCCCC2)N(C)C(=O)[C@@H]2CCN2C(=O)[C@H](C)N(C)C1=O [Compound 1039] ([NMeL]I[NMeA][Aze][NMeCha][Sar][hPhe(3-Cl-4-CF3)][NMeD](N(CH2CH2)2CF2)[Ac5c][NMeGly(cPent)][NMeD]-{3Oxa8azabicyclo(3.2.1)octane}; lactam N-11)	45 nM
CC[C@H](C)[C@@H]1NC(=O)[C@H](CC(C)C)N(C)C(=O)C[C@@H](C(=O)N2CCCCC2)N(C)C(=O)[C@H]([C@@H](C)O)N(C)C(=O)C2(CCCC2)NC(=O)[C@@H]2CCCN2C(=O)[C@H](CCc2ccc(C(F)(F)F)c(Cl)c2)NC(=O)CN(C)C(=O)[C@H](CC2CCCCC2)N(C)C(=O)CN(C)C(=O)CN(C)C1=O [Compound 1041] ([NMeL]I[Sar][Sar][NMeCha][Sar][hPhe(3-Cl-4-CF3)]P[Ac5c][NMeT][NMeD]-Piperidide; lactam N-11)	1.6 nM
CCCC[C@@H]1NC(=O)[C@H](Cc2ccccc2)NC(=O)CN(C)C(=O)[C@H](Cc2ccc(Cl)cc2)N(C)C(=O)CN(C)C(=O)CN(C)C(=O)[C@H]([C@@H](C)CC)NC(=O)[C@H](CC(C)C)N(C)C(=O)C[C@@H](C(=O)N2CCCCC2)N(C)C(=O)[C@H](CC(C)C)NC(=O)C(C)(C)N(C)C1=O [Compound 1043] ([NMeL]I[Sar][Sar][NMePhe(4-Cl)][Sar]F[Nle][NMeAib]L[NMeD]-Piperidide; lactam N-11)	60 nM
